Measurements as given in ChEMBL document CHEMBL1201862, “PubChem BioAssay data set” (2004).
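1) Cells in 96-well plates. 2) Compound, 48 h, 5 concentrations. 3) Linear interpolation between surrounding doses. 4) Unreached endpoint = highest concentration. At the GI50, growth is halved.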 Calls of active or inactive are those of the source. Cut-off read from the data, not from the text of the source: active = GI50 up to about 1.1 µM and inactive = higher. Where a SMILES comes first, the peptide text is derived from it. [ ]: non-standard residue; d: D form. Phe(4-Cl) = N[CH](Cc1ccc(Cl)cc1)C(=O)O

Experiments:
Experiment in all cases: NCI-60 cell line screen, 48 h
RPMI-8226 = system: RPMI-8226
SF-268 = system: SF-268
KM12 = system: KM12
DMS-114 = system: DMS-114
NCI-H23 = system: NCI-H23
SR = system: SR
U-251 = system: U-251
IGROV-1 = system: IGROV-1
NCI-H522 = system: NCI-H522
HL-60 = system: HL-60
UO-31 = system: UO-31
LOX IMVI = system: LOX IMVI
HT-29 = system: HT-29
OVCAR-4 = system: OVCAR-4
HCT-15 = system: HCT-15
NCI-H460 = system: NCI-H460
BT-549 = system: BT-549
MDA-MB-231 = system: MDA-MB-231
Hs-578T = system: Hs-578T
T47D = system: T47D

SMILES | GI50 (RPMI-8226) | GI50 (SF-268) | GI50 (KM12) | GI50 (DMS-114) | GI50 (NCI-H23) | GI50 (SR) | GI50 (U-251) | GI50 (IGROV-1) | GI50 (NCI-H522) | GI50 (HL-60) | GI50 (UO-31) | GI50 (LOX IMVI) | GI50 (HT-29) | GI50 (OVCAR-4) | GI50 (HCT-15) [µM] | GI50 (NCI-H460) | GI50 (BT-549) | GI50 (MDA-MB-231) | GI50 (Hs-578T) | GI50 (T47D)
CCOC(=O)c1c(-c2ccccc2)oc(-c2ccccc2)c1C(=O)OCC | 50 µM (inactive) | > 100 µM (inactive) | > 100 µM (inactive) | > 100 µM (inactive) | 89.3 µM (inactive) | 68.2 µM (inactive) | > 100 µM (inactive) | > 100 µM (inactive) | > 100 µM (inactive) | 33.6 µM (inactive) | > 100 µM (inactive) | > 100 µM (inactive) | 22.6 µM (inactive) |  |  |  |  |  |  | 
CC12CCc3ccccc3C1=NNC(=O)C2 (stereo not given) | > 100 µM (inactive) | > 100 µM (inactive) | > 100 µM (inactive) | > 100 µM (inactive) | > 100 µM (inactive) |  | > 100 µM (inactive) | > 100 µM (inactive) | > 100 µM (inactive) | 82 µM (inactive) | > 100 µM (inactive) | > 100 µM (inactive) | > 100 µM (inactive) | > 100 µM (inactive) | > 100 | > 100 µM (inactive) |  |  |  | 
CCCCCCCC1(c2ccc(N)cc2)CCC(=O)NC1=O (stereo not given) | 19.1 µM (inactive) | 34.4 µM (inactive) | 48.4 µM (inactive) | 24.2 µM (inactive) | 38.3 µM (inactive) |  |  | 32.3 µM (inactive) | 27.2 µM (inactive) | 17 µM (inactive) | 20.5 µM (inactive) | 33 µM (inactive) |  | 28.1 µM (inactive) | 36.8 | 26.7 µM (inactive) |  |  |  | 
CC1=C(c2cc(C(=O)Nc3cccc(C(F)(F)F)c3)nc(NC#N)n2)Sc2ccccc2N1 | > 100 µM (inactive) | > 100 µM (inactive) | > 100 µM (inactive) | > 100 µM (inactive) | > 100 µM (inactive) | > 100 µM (inactive) | 86.5 µM (inactive) | > 100 µM (inactive) |  | > 100 µM (inactive) | > 100 µM (inactive) | > 100 µM (inactive) | > 100 µM (inactive) | 31.7 µM (inactive) | > 100 | > 100 µM (inactive) |  |  |  | 
COc1ccc2c(c1)NC1(O)c3ccccc3C(=O)C21O (stereo not given) | > 100 µM (inactive) | > 100 µM (inactive) | > 100 µM (inactive) | > 100 µM (inactive) | > 100 µM (inactive) | > 100 µM (inactive) | > 100 µM (inactive) | > 100 µM (inactive) | > 100 µM (inactive) | > 100 µM (inactive) | > 100 µM (inactive) | > 100 µM (inactive) | > 100 µM (inactive) |  |  | > 100 µM (inactive) |  |  |  | 
Cc1cc(C)nc(NS(=O)(=O)c2ccc(NC(=O)c3cccc4c(Nc5ccc(S(N)(=O)=O)cc5)c5ccccc5nc34)cc2)n1 | 12.8 µM (inactive) | 6.59 µM (inactive) | 15.4 µM (inactive) | 17.5 µM (inactive) | 37.1 µM (inactive) |  | 8.89 µM (inactive) | 4.24 µM (inactive) | 13 µM (inactive) | 7.4 µM (inactive) | > 100 µM (inactive) | 19.4 µM (inactive) | 34.9 µM (inactive) | 35.1 µM (inactive) | > 100 | 44.1 µM (inactive) |  |  |  | 
Oc1[nH]c(Nc2cccc(Cl)c2)nc2ncnc1-2 | > 100 µM (inactive) | > 100 µM (inactive) | > 100 µM (inactive) |  | > 100 µM (inactive) | > 100 µM (inactive) | > 100 µM (inactive) | 80.4 µM (inactive) | > 100 µM (inactive) | 79.8 µM (inactive) | > 100 µM (inactive) | 80.7 µM (inactive) | 53.7 µM (inactive) | > 100 µM (inactive) | > 100 | > 100 µM (inactive) | > 100 µM (inactive) | 30.8 µM (inactive) | 68.5 µM (inactive) | 44.9 µM (inactive)
CC(O)C(NC(=O)C(Cc1ccccc1)NC(=O)C(NC(=O)C(CCCCN)NC(=O)C(Cc1c[nH]c2ccccc12)NC(=O)C(Cc1ccc(O)cc1)NC(=O)C(Cc1ccc(Cl)cc1)NC(=O)C(N)Cc1ccccc1)C(C)O)C(N)=O (stereo not given) (H-F[Phe(4-Cl)]YWKTFT-NH2; configuration not given here) | 14 µM (inactive) |  | 13.5 µM (inactive) | 17.3 µM (inactive) | 19.8 µM (inactive) |  | 18.7 µM (inactive) | 19.9 µM (inactive) |  | 15.3 µM (inactive) | 19 µM (inactive) |  | 23.4 µM (inactive) | 23.9 µM (inactive) | 17.9 | 13.7 µM (inactive) |  |  |  | 
O=c1c2ccc(Br)cc2nc(-c2ccccc2)n1NC1OC(CO)C(O)C(O)C1O (stereo not given) | > 100 µM (inactive) | > 100 µM (inactive) | > 100 µM (inactive) | > 100 µM (inactive) | > 100 µM (inactive) |  | > 100 µM (inactive) | > 100 µM (inactive) | > 100 µM (inactive) | > 100 µM (inactive) | > 100 µM (inactive) |  | > 100 µM (inactive) | > 100 µM (inactive) | > 100 | > 100 µM (inactive) |  |  |  | 
O=C(OC12CC3CC(CC(C3)C1)C2)c1ccc(NCc2cc(O)ccc2O)cc1 | 0.0966 µM (active) | 1.75 µM (inactive) | 1.16 µM (inactive) |  | 1.07 µM (active) | 0.132 µM (active) | 0.701 µM (active) | 0.109 µM (active) | 0.0776 µM (active) | 0.0491 µM (active) | 0.417 µM (active) | 0.859 µM (active) | 1.48 µM (inactive) | 0.433 µM (active) | 0.435 | 2.53 µM (inactive) | 0.333 µM (active) | 1.98 µM (inactive) | 0.982 µM (active) | 0.262 µM (active)
COC(=O)c1ccc(/C=C2\CCc3ccccc3C2=O)cc1 | > 100 µM (inactive) | > 100 µM (inactive) | > 100 µM (inactive) |  | > 100 µM (inactive) | > 100 µM (inactive) | > 100 µM (inactive) | > 100 µM (inactive) | 69.7 µM (inactive) | > 100 µM (inactive) | > 100 µM (inactive) | > 100 µM (inactive) | > 100 µM (inactive) | > 100 µM (inactive) | > 100 | > 100 µM (inactive) | > 100 µM (inactive) | > 100 µM (inactive) | > 100 µM (inactive) | > 100 µM (inactive)
CCCCCC1C2C(=O)NC(=O)C1C(=O)NC2=O (stereo not given) | > 100 µM (inactive) | > 100 µM (inactive) | > 100 µM (inactive) | > 100 µM (inactive) | > 100 µM (inactive) |  |  | > 100 µM (inactive) | > 100 µM (inactive) | > 100 µM (inactive) | > 100 µM (inactive) | > 100 µM (inactive) | > 100 µM (inactive) | > 100 µM (inactive) | > 100 | > 100 µM (inactive) |  |  |  | 
COC1=CC2(C=CC1=O)c1cc(OC)c(OC)cc1CCN2C(=O)c1ccccc1 (stereo not given) | > 100 µM (inactive) |  | > 100 µM (inactive) | > 100 µM (inactive) | > 100 µM (inactive) |  | > 100 µM (inactive) | > 100 µM (inactive) | > 100 µM (inactive) |  | 97.9 µM (inactive) | > 100 µM (inactive) | > 100 µM (inactive) |  | > 100 |  |  |  |  | 
C=C(C)C1CC2=C(C(=O)OC)C=C(O2)C(C(=C)C)[C@@H]2OC(=O)/C(=C\C1O)[C@H]2N(C)C (stereo not given in full) | 3.23 µM (inactive) | 17 µM (inactive) | 13.7 µM (inactive) |  | 13.1 µM (inactive) | 6.92 µM (inactive) | 15.7 µM (inactive) | 6.04 µM (inactive) | 2.91 µM (inactive) | 2.82 µM (inactive) | 13.4 µM (inactive) | 8.09 µM (inactive) | 15 µM (inactive) | 5.64 µM (inactive) | 5.97 | 15.2 µM (inactive) | 9.75 µM (inactive) | 21.5 µM (inactive) | 18.9 µM (inactive) | 11.7 µM (inactive)
O=S(=O)(O)c1ccc(NN(c2c(O)ccc3ccccc23)S(=O)(=O)O)cc1 | > 100 µM (inactive) | > 100 µM (inactive) | > 100 µM (inactive) |  | > 100 µM (inactive) | > 100 µM (inactive) | > 100 µM (inactive) | > 100 µM (inactive) | > 100 µM (inactive) | > 100 µM (inactive) | > 100 µM (inactive) | > 100 µM (inactive) | > 100 µM (inactive) | > 100 µM (inactive) | > 100 | > 100 µM (inactive) | > 100 µM (inactive) | > 100 µM (inactive) | > 100 µM (inactive) | > 100 µM (inactive)
CC(C)c1ccc(C(c2c(O)oc3ccccc3c2=O)c2c(O)oc3ccccc3c2=O)cc1 | 17.7 µM (inactive) | 25.6 µM (inactive) | 19.5 µM (inactive) |  | 23.9 µM (inactive) | 9.64 µM (inactive) | 15.1 µM (inactive) | 24.8 µM (inactive) | 20 µM (inactive) | 6.03 µM (inactive) | 13.8 µM (inactive) | 17.7 µM (inactive) | 20.8 µM (inactive) | 28.4 µM (inactive) | 19.1 | 18.7 µM (inactive) | 18.1 µM (inactive) | 21.4 µM (inactive) | 25.6 µM (inactive) | 31.2 µM (inactive)
NC(=S)/N=C(/c1nc2ccc(Cl)cc2nc1O)C(O)c1ccccc1Cl (stereo not given) | > 100 µM (inactive) | > 100 µM (inactive) | > 100 µM (inactive) | > 100 µM (inactive) | > 100 µM (inactive) |  | > 100 µM (inactive) | > 100 µM (inactive) | > 100 µM (inactive) | > 100 µM (inactive) | > 100 µM (inactive) | > 100 µM (inactive) | > 100 µM (inactive) | > 100 µM (inactive) | > 100 | > 100 µM (inactive) |  |  |  | 
